Here are results for eleven compounds from ChEMBL document CHEMBL1821548, “Structure selectivity relationship studies of 17-cyclopropylmethyl-3,14β-dihydroxy-4,5α-epoxy-6β-[(4'-pyridyl)carboxamido]morphinan derivatives toward the development of the mu opioid receptor antagonists” (Bioorg Med Chem Lett, 2011).

A short description of assay [1]: Selectivity ratio of Ki for delta opioid receptor to Ki for mu opioid receptor.
Assay [2] concerns the target T1, Mu-type opioid receptor (Homo sapiens, UniProt P35372). In words: Agonist activity against mu opioid receptor expressed in CHO cells assessed as stimulation of [35S]-GTPgammaS binding. In kind it is functional, cell-based. (GTPγS resists hydrolysis and so accumulates on activated G proteins.)
The target of assay [3] is T1, Mu-type opioid receptor. In words: Agonist activity against mu opioid receptor expressed in CHO cells assessed as stimulation of [35S]-GTPgammaS binding relative to DAMGO. In kind it is functional, cell-based.
Assay [4] concerns the target Kappa-type opioid receptor (Homo sapiens, UniProt P41145). Nature of the assay: Displacement of [3H]-norBNI from kappa opioid receptor expressed in CHO cells after 1 hr. In kind it is cell-based. For orientation: Displacement assays read how much labelled ligand stays bound in the presence of the test substance.
Assay [5] concerns the target Delta-type opioid receptor (Homo sapiens, UniProt P41143). In words: Displacement of [3H]-NTI from delta opioid receptor expressed in CHO cells after 1 hr. In kind it is cell-based.
Assay [6] in a line: Selectivity ratio of Ki for kappa opioid receptor to Ki for mu opioid receptor.
Assay [7] deals with T1, Mu-type opioid receptor. Nature of the assay: Displacement of [3H]naloxone from mu opioid receptor expressed in CHO cells after 1 hr. In kind it is cell-based.
Assay [8] concerns the target T1, Mu-type opioid receptor. The following applies: CHO; 100 nM.
Description: Agonist activity against mu opioid receptor expressed in CHO cells assessed as stimulation of [35S]-GTPgammaS binding at 100 nM relative to DAMGO

T1 sequence (P35372 whole entry): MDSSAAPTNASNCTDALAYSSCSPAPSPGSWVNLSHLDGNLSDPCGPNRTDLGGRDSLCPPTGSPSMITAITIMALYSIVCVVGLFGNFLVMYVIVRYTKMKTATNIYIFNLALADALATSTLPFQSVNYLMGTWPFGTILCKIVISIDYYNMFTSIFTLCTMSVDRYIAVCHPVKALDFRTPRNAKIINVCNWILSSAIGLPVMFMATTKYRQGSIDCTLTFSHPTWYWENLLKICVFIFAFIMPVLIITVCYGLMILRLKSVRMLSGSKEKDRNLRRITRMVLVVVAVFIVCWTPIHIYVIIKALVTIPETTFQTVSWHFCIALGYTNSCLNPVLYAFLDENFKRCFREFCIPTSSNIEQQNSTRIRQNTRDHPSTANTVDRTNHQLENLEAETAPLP
Chain of Delta-type opioid receptor (P41143 whole entry): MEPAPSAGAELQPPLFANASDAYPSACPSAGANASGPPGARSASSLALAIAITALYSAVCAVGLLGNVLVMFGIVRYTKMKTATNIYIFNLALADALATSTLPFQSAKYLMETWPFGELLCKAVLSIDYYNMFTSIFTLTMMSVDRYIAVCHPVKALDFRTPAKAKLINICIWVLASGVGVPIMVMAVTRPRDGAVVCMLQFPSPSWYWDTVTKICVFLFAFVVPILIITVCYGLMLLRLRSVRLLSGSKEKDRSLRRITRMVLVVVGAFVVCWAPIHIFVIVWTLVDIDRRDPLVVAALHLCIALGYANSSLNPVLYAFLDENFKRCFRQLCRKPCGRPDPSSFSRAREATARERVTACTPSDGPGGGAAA
Chain of Kappa-type opioid receptor (P41145 whole entry): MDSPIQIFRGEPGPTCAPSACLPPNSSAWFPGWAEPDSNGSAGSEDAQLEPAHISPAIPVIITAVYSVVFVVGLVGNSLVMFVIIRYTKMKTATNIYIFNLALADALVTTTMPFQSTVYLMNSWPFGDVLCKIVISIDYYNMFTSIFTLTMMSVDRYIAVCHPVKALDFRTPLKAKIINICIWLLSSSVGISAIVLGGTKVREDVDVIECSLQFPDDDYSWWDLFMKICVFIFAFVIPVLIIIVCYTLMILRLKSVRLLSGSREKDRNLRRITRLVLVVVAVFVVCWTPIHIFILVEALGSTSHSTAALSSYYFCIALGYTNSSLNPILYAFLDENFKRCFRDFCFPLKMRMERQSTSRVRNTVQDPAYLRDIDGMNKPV

For `O=C(N[C@@H]1CC[C@@]2(O)[C@H]3Cc4ccc(O)c5c4[C@@]2(CCN3CC2CC2)[C@H]1O5)c1ccnc(Br)c1`, the Ratio Ki in assay [1] is 276; in assay [6], 0.3. In addition, the EC50 at Mu-type opioid receptor [2] was 1.19 nM. For the same compound, at Mu-type opioid receptor [3], the Emax was found to be 50.8%. The Ki in assay [4] worked out at 0.18 nM; in assay [5], 174 nM; on Mu-type opioid receptor [7] it was 0.63 nM.

With `O=C(CNC(=O)c1ccncc1)N[C@@H]1CC[C@@]2(O)[C@H]3Cc4ccc(O)c5c4[C@@]2(CCN3CC2CC2)[C@H]1O5`, on Mu-type opioid receptor [2], the concentration for a half-maximal effect (EC50) came out at 2.84 nM. Moreover, the maximum response (Emax) on Mu-type opioid receptor [3] is 22.6%. Moreover, the inhibitory constant (Ki) in assay [4] stood at 203 nM; in assay [5], 526 nM; on Mu-type opioid receptor [7], 0.73 nM.

Consider `O=C(N[C@@H]1CC[C@@]2(O)[C@H]3Cc4ccc(O)c5c4[C@@]2(CCN3CC2CC2)[C@H]1O5)c1ccncc1Cl`, for which the Ratio Ki came to 746 in assay [1] and 29.6 in assay [6]. Besides, on Mu-type opioid receptor [2], the EC50 amounted to 2.32 nM. Besides, on Mu-type opioid receptor [3], the Emax is 24.9%. Also, the figures for the Ki (in assay [4]; in assay [5]; at Mu-type opioid receptor [7]) were 19.9 nM, 502 nM and 0.67 nM, respectively.

For `O=C(N[C@@H]1CC[C@@]2(O)[C@H]3Cc4ccc(O)c5c4[C@@]2(CCN3CC2CC2)[C@H]1O5)c1ccnc(Cl)c1`, the Ratio Ki in assay [1] was determined as 6110; in assay [6], 1.5. In addition, the EC50 at Mu-type opioid receptor [2] was determined as 0.83 nM. Also, the Emax on Mu-type opioid receptor [3] is 58.2%. For the same compound, the Ki came out at 0.15 nM in assay [4], 602 nM in assay [5] and 0.1 nM at Mu-type opioid receptor [7].

As to `CN1CCC(C(=O)N[C@@H]2CC[C@@]3(O)[C@H]4Cc5ccc(O)c6c5[C@@]3(CCN4CC3CC3)[C@H]2O6)CC1`, the Ratio Ki in assay [1] came to 2970; in assay [6], 7.5. Moreover, on Mu-type opioid receptor [2], the EC50 was found to be 5.08 nM. Further, the Emax on Mu-type opioid receptor [3] worked out at 37.2%. The values for the Ki (in assay [4]; in assay [5]; at Mu-type opioid receptor [7]) were 6.49 nM, 2590 nM and 0.87 nM, respectively.

In the case of `O=C(CCc1ccncc1)N[C@@H]1CC[C@@]2(O)[C@H]3Cc4ccc(O)c5c4[C@@]2(CCN3CC2CC2)[C@H]1O5`, the Ratio Ki is 516 in assay [1] and 2.9 in assay [6]. Further, the EC50 on Mu-type opioid receptor [2] was found to be 1.46 nM. In addition, the Emax at Mu-type opioid receptor [3] was found to be 22.6%. The inhibition constant (Ki) in assay [4] was 1.65 nM; in assay [5] it was 294 nM; on Mu-type opioid receptor [7], 0.57 nM.

On to `O=C(Cc1ccncc1)N[C@@H]1CC[C@@]2(O)[C@H]3Cc4ccc(O)c5c4[C@@]2(CCN3CC2CC2)[C@H]1O5`, for which the Ratio Ki came to 1020 in assay [1] and 10.6 in assay [6]. For the same compound, the EC50 at Mu-type opioid receptor [2] was 2.32 nM. Moreover, the Emax at Mu-type opioid receptor [3] stood at 32.8%. The Ki in assay [4] is 9.01 nM; in assay [5], 866 nM; at Mu-type opioid receptor [7], 0.85 nM.

The compound `C[C@@H](O)[C@H](NC(=O)[C@H]1NC(=O)[C@H]([C@@H](C)O)NC(=O)[C@H](CCCNC(=N)N)NC(=O)[C@@H](Cc2c[nH]c3ccccc23)NC(=O)[C@H](Cc2ccc(O)cc2)NC(=O)[C@@H](NC(=O)[C@H]2Cc3ccccc3CN2)CSSC1(C)C)C(N)=O` showed a maximal response (Emax) on Mu-type opioid receptor [8] of 1.99%.

Turning to `O=C(N[C@@H]1CC[C@@]2(O)[C@H]3Cc4ccc(O)c5c4[C@@]2(CCN3CC2CC2)[C@H]1O5)c1ccncc1Br`, the Ratio Ki in assay [1] is 285; in assay [6] it was 6.3. For the same compound, the EC50 on Mu-type opioid receptor [2] amounted to 1.31 nM. Moreover, the Emax at Mu-type opioid receptor [3] is 23.2%. The inhibitory constant (Ki) in assay [4] came out at 2.83 nM; in assay [5] it was 128 nM; on Mu-type opioid receptor [7] it was 0.45 nM.

Take `Cc1cc(C(=O)N[C@@H]2CC[C@@]3(O)[C@H]4Cc5ccc(O)c6c5[C@@]3(CCN4CC3CC3)[C@H]2O6)ccn1`: the Ratio Ki worked out at 232 in assay [1] and 1.5 in assay [6]. Moreover, the EC50 at Mu-type opioid receptor [2] is 1.13 nM. Besides, on Mu-type opioid receptor [3], the maximum response (Emax) was 43.3%. Further, the inhibition constant Ki stood at 0.58 nM in assay [4], 90.1 nM in assay [5] and 0.39 nM on Mu-type opioid receptor [7].

Consider `Cc1cnccc1C(=O)N[C@@H]1CC[C@@]2(O)[C@H]3Cc4ccc(O)c5c4[C@@]2(CCN3CC2CC2)[C@H]1O5`, for which the Ratio Ki amounted to 470 in assay [1] and 166 in assay [6]. In addition, on Mu-type opioid receptor [2], the 50% effective concentration (EC50) came out at 1.52 nM. The Emax at Mu-type opioid receptor [3] was found to be 30.6%. For the same compound, the Ki in assay [4] was 96.7 nM; in assay [5], 274 nM; at Mu-type opioid receptor [7], 0.58 nM.

The EC50 is the concentration that produces a half-maximal response. As usually defined, the Emax is the greatest response seen or fitted, relative to the assay's reference. The term Ki denotes the equilibrium dissociation constant of an inhibitor or competing ligand from its target. High values mean a looser hold on the target, low ones a stronger hold on the target.
